Several values for one entry are separate records, joined by “and”; a condition that tells them apart may be missing. Equal entries are not always repeated.
Columns and labels:
Assay type in all cases: binding
LC3A [1] = molecular target: T1, LC3A (Homo sapiens, UniProt Q9H492); experiment: FP assay with Cy5-labelled p62 LIR tracer (protein titration and tracer displacement); conditions: for FP assay result (normalised FP signal): replicates, listed as TH152
LC3B = LC3B (Homo sapiens, UniProt Q9GZQ8); experiment: as above; conditions: replicates, listed as TH152
[2] = test system: LC3/GABARAPs (human Atg8 family); experiment: FP assay with Cy5-labelled p62 LIR tracer, statements on all LC3/GABARAPs
LC3A [3] = molecular target: T1, LC3A; experiment: Isothermal titration calorimetry (ITC); conditions: LC3A; read-out: KD (ITC)

With CCCCCCC(Sc1nc(Cl)cc(Nc2nc(-c3ccc(C(=O)O)cc3)cs2)n1)C(=O)O (stereo not shown) [compound 21] the “% tracer bound @LC3A” value (LC3A [1]; LC3A tracer displacement, normalized on p62-LIR positive control) was 26%, the “FP assay result (normalised FP signal)” value (LC3A [1]; log10 concentration [M] -3.5) was 16.9522 and 16.2308 and 9.017 and 3.246 and the “FP assay result (normalised FP signal)” value (LC3A [1]; log10 concentration [M] -4) was 23.8052 and 27.7728 and 15.8702 and 10.8206. The “FP assay result (normalised FP signal)” value (LC3A [1]; log10 concentration [M] -4.5) was 40.3968 and 45.4463 and 36.0685 and 29.5762, the “FP assay result (normalised FP signal)” value (LC3A [1]; log10 concentration [M] -5) was 79.7115 and 85.4824 and 71.4157 and 74.3012 and the “FP assay result (normalised FP signal)” value (LC3A [1]; log10 concentration [M] -5.5) was 90.532 and 94.4995 and 92.3354 (2×). The “FP assay result (normalised FP signal)” value (LC3A [1]; log10 concentration [M] -6) was 102.435 and 103.156 and 95.2209 and 98.4671, the “FP assay result (normalised FP signal)” value (LC3A [1]; log10 concentration [M] -6.5) was 94.8602 and 102.795 and 92.3354 and 90.8927 and the “FP assay result (normalised FP signal)” value (LC3A [1]; log10 concentration [M] -7) was 102.074 and 100.271 and 99.1885 and 98.4671. For the same molecule, the “FP assay result (normalised FP signal)” value (LC3A [1]; log10 concentration [M] -7.5) was 103.877 and 100.271 and 96.6637 and 94.4995, the “FP assay result (normalised FP signal)” value (LC3A [1]; log10 concentration [M] -8) was 101.353 (2×) and 90.1713 and 94.4995 and the “FP assay result (normalised FP signal)” value (LC3A [1]; log10 concentration [M] -8.5) was 95.9423 and 95.2209 and 93.4175 and 99.9098. For the same molecule, the “FP assay result (normalised FP signal)” value (LC3B; log10 concentration [M] -3.5) was 5.227 and 1.651 and 6.602 and 11.5543, the “FP assay result (normalised FP signal)” value (LC3B; log10 concentration [M] -4) was 15.956 and 18.4319 and 23.3838 and 18.9821 and the “FP assay result (normalised FP signal)” value (LC3B; log10 concentration [M] -4.5) was 38.7895 and 39.3398 and 43.1912 and 47.3177. For the same molecule, the “FP assay result (normalised FP signal)” value (LC3B; log10 concentration [M] -5) was 78.6795 and 79.2297 and 89.1334 and 88.033, the “FP assay result (normalised FP signal)” value (LC3B; log10 concentration [M] -5.5) was 90.5089 and 85.8322 and 98.2118 and 94.9106 and the “FP assay result (normalised FP signal)” value (LC3B; log10 concentration [M] -6) was 92.7098 and 95.4608 and 102.063 and 101.238. The “FP assay result (normalised FP signal)” value (LC3B; log10 concentration [M] -6.5) was 91.0591 and 89.9587 and 97.9367 and 96.8363, the “FP assay result (normalised FP signal)” value (LC3B; log10 concentration [M] -7) was 91.6094 and 98.762 and 103.439 and 102.063 and the “FP assay result (normalised FP signal)” value (LC3B; log10 concentration [M] -7.5) was 90.2338 and 98.4869 and 99.3122 and 100.138. For the same molecule, the “FP assay result (normalised FP signal)” value (LC3B; log10 concentration [M] -8) was 98.762 and 98.2118 and 100.413 and 102.613, the “FP assay result (normalised FP signal)” value (LC3B; log10 concentration [M] -8.5) was 94.9106 and 100.413 (2×) and 103.439 and the “interaction with LC3/GABARAP family members in FP displacement assay” value [2] was “interacted with all LC3/GABARAPs”. For the same molecule, the Kd (LC3A [3]) was 2000 nM.

Reference: PMC11589570, “Critical assessment of LC3/GABARAP ligands used for degrader development and ligandability of LC3/GABARAP binding pockets” (Nature Communications, 2024)
